Values after ≈ are worked out from the molar mass of the structure shown. “Also recorded” adds a separate entry of the source.
Tests used:
HS-5 cells = assay: Cell viability assay (MTT), HS-5; assay type: cell-based, human; details: 24 hours
E. coli K-12 = details: E. coli K-12, literature values; cited from earlier work
Water solubility = assay type: physicochemical
[1] = test system: YdgR transporter knockout mutants of E. coli; assay: Antibacterial activity against YdgR transporter knockout mutant; assay type: cell-based; details: YdgR mutant versus wild-type E. coli
Protocol: (§1) Bacteria culture and inhibitory activity assay: Single esterase (BioH, YjfP, FrsA, YbfF, YfbB, YqiA, YeiG, or and YpfH) deletion mutants were purchased from Dharmacon Horizon Discovery (Cambridge, United Kingdom). […] Compounds were added at different concentrations.
To verify whether bacterial oligopeptide transporters are involved in the uptake of CLsuGG, the activities of CLsuGG against the YdgR mutant and wild-type E. coli was compared (FIG. 4A). The deletion of YdgR, an inner membrane (IM) proton-coupled transporter for uptaking di- and tripeptides (Prabhala et al., “The Prototypical Proton-Coupled Oligopeptide Transporter YdgR from Escherichia coli Facilitates Chloramphenicol Uptake into Bacterial Cells,” J. Biol. Chem. 293(3):1007-1017 (2018), which is hereby incorporated by reference in its entirety), indeed rescues the bacteria, i.e., increasing cell viability for about 10%.

E. coli (K-12) lysate = assay: Hydrolysis assay with E. coli lysate; assay type: in vitro ADME; details: compound 200 μM
Protocol: (§2) Hydrolysis assay: Wild-type E. coli strains (K12) were harvested by centrifugation and the cell pellets were lysed using a sonic device. After centrifugation, the supernatant was collected and the proteinase inhibitor was added in the E. coli lysate. The concentration of E. coli lysate was normalized by the fluorescence intensity of 5-carboxyfluorescein diacetate (CFDA). Briefly, different concentrations of CES (4 U/mL, 2 U/mL, 1 U/mL, 0.5 U/mL, 0.25 U/mL, 0.125 U/mL, 0.0625 U/mL, 0.03125 U/mL, 0.015625 U/mL and 0 U/mL) and different amount of E. coli lysates were prepared in PBS buffer. Followed by, 25 μM of CFDA was added in and incubated at room temperature for 1 hour. Then the fluorescence was tested to draw a fluorescence-concentration dependent curve for figuring out the concentration of E. coli lysates. Solutions of CLsuGG (200 μM) were prepared in pH 7.4 PBS buffer. CES and E. coli lysate (0.1 U/mL) were added and incubated with above solutions at 37° C. for 24 hours. At different time points, the solution was taken out, extracted with an equal volume of butanol, concentrated to dryness, and resuspended with butanol for HPLC analysis. HPLC was performed with Agilent 1100 Series Liquid Chromatograph equipped with an XTerra C18 reverse phase column and Variable Wavelength Detector. The hydrolyzed mixture resuspended in 1 mL of butanol was injected to HPLC mobile phase (0.1% trifluoroacetic acid, the starting ratio: 10% acetonitrile and 90% water). The system was run at a flow rate of 10 mL/min.
as §2, with “analysis.” for “analysis. HPLC was performed with Agilent 1100 Series Liquid Chromatograph equipped with an XTerra C18 reverse phase column and Variable Wavelength Detector. The hydrolyzed mixture resuspended in 1 mL of butanol was injected to HPLC mobile phase (0.1% trifluoroacetic acid, the starting ratio: 10% acetonitrile and 90% water). The system was run at a flow rate of 10 mL/min.”

[2] = test system: esterase (bioH, yjfP, frsA, ybfF, yfbB, ypfH, yeiG, or yqiA) deletion mutants of E. coli; assay type: cell-based
Protocol: Bacteria culture and inhibitory activity assay: Single esterase (BioH, YjfP, FrsA, YbfF, YfbB, YqiA, YeiG, or and YpfH) deletion mutants were purchased from Dharmacon Horizon Discovery (Cambridge, United Kingdom). The K12 wild-type E. coli strain (MG1655) was cultured in autoclaved LB medium (25 g/L LB broth/water) in a shaker-incubator overnight to stationary growth phase, and then sub-cultured in the same medium after dilution to OD600 of 0.05. Compounds were added at different concentrations. The mixture of bacteria and compounds were placed (200 μL/well) into 96-well clear flat bottom plates. In all plates, the OD600 was measured before and after 16 hour incubation at 37° C.
Bacteria culture and inhibitory activity assay: Single esterase (bioH, frsA, ybfF, yfbB, yqiA, yeiG, or ypfH) deletion mutants, bacterial transporter (ydgR, fepA and ompF) deletion mutants and the efflux pump (acrA) deletion mutant were all purchased from Dharmacon Horizon Discovery (Cambridge, United Kingdom). The K12 wild-type E. coli strain (MG1655) was cultured in autoclaved LB medium (25 g/L LB broth/water) in a shaker-incubator overnight to stationary growth phase, and then sub-cultured in the same medium after dilution to OD600 of 0.05. Compounds were added at different concentrations. The mixture of bacteria and compounds were placed (200 μL/well) into 96-well clear flat bottom plates. In all plates, the OD600 was measured before and after a 16 hour incubation at 37° C.

[3] = test system: wild type E. coli strain (K-12); assay: Bacteria culture and inhibitory activity assay (MIC); assay type: cell-based
Protocol: as §1
Compounds were added at different concentrations.

carboxylesterase (CES) = assay: Hydrolysis assay with exogenous carboxylesterase; assay type: in vitro ADME, porcine; details: CES 0.1 U/mL
From the text: Experimental materials and instruments. All the solvents and chemical reagents were used directly as received from the commercial sources without further purification unless otherwise stated. Carboxylesterase (CES) from porcine liver was purchased from Sigma-Aldrich (lyophilized powder, >15 units/mg solid; Unit definition: One unit will hydrolyze 1.0 μmole of ethyl butyrate to butyric acid and ethanol per min at pH 8.0 at 25). CLsuGG, CLsuG, CLsuGGG were purified with Agilent 1100 Series Liquid Chromatography system, equipped with an XTerra C18 RP column and Variable Wavelength detector.
as §2, with “Briefly, different concentrations of CES (4 U/mL, 2 U/mL, 1 U/mL, 0.5 U/mL, 0.25 U/mL, 0.125 U/mL, 0.0625 U/mL, 0.03125 U/mL, 0.015625 U/mL and 0 U/mL) and different amount of E. coli lysates were prepared in PBS buffer. Followed by, 25 μM of CFDA was added in and incubated at room temperature for 1 hour.” left out, “CES and E. coli lysate (0.1 U/mL) were added and incubated with above solutions at 37° C. for 24 hours.” left out

HepG2 cells = assay: Cell viability assay (MTT), HepG2; assay type: cell-based; details: 20 μM, 24 hours
HEK293 cells = assay: Cell viability assay (MTT), HEK293; details: 20 μM, 24 hours
[4] = test system: double esterase (BioH and YjfP) deletion mutant of E. coli; assay: Antibacterial activity against double esterase deletion mutant; assay type: cell-based
Protocol: as §1
To examine the roles of different intrabacterial esterases on the hydrolysis of CLsuGG, the activities of CLsuGG against eight E. coli mutants that have one of bacterial esterase genes (i.e., BioH, YjfP, FrsA, YbfF, YeiG, YfbB, YpfH or YqiA) deleted was measured. […] To confirm the role of intrabacterial esterases, a double mutant E. coli was generated, with the deletion of BioH and YjfP genes (FIGS. 5C-5D). […] These studies confirm that, after CLsuGG enters E. coli, various esterases in bacterial cytoplasm rapidly convert CLsuGG to the active antibiotic agent (i.e., CL).

SMILES	cytotoxicity of control compounds against HS-5 cells (HS-5 cells; around MIC values (0.5 μM))	MIC (E. coli K-12) [µg/mL]	water solubility (Water solubility)	cytotoxicity / cell viability of HS-5 cells (HS-5 cells; 20 μM)	increase of cell viability by deletion of YdgR [1]	apparent first-order rate constant of hydrolysis (E. coli (K-12) lysate; E. coli lysate 0.1 U/mL, pH 7.4 PBS, 37° C.) [h⁻¹]	time to complete hydrolysis (E. coli (K-12) lysate; intrabacterial esterases 0.1 U/mL) [h]	reduction of antibacterial activity by single esterase gene deletion [2]	Effect of addition of CES on the MIC value ([3]; exogenous CES)	MIC (μM) ([3]; wild type E. coli (K-12)) [µM]	MIC (μg/mL) ([3]; wild type E. coli (K-12)) [µg/mL]	time to complete hydrolysis (carboxylesterase (CES))	conversion (carboxylesterase (CES); after 2 hours)	apparent first-order rate constant of hydrolysis (carboxylesterase (CES); compound 200 μM) [h⁻¹]	cytotoxicity / cell viability of HepG2 cells (HepG2 cells)	cytotoxicity / cell viability of HEK293 cells (HEK293 cells)	antibacterial activity relative to the activity against wild type E. coli [4] [%]
COc1cc(Cc2cnc(N)nc2N)cc(OC)c1OC [trimethoprim]	relatively low cytotoxicity	1 (≈ 3.44 µM)															
O=C(O)CNC(=O)CNC(=O)CCC(=O)OCC(NC(=O)C(Cl)Cl)C(O)c1ccc([N+](=O)[O-])cc1 (centres unmarked) [CLsuGG]			soluble	largely innocuous; also recorded: reduced toxicity	about 10%	-1.868	≤ 2	slightly	hardly affected	20 (≈ 10.7 µg/mL)	10.7 (≈ 19.9 µM)	more than 12 hours	around 70%	-0.443	hardly altered the cytotoxicity of CL	hardly altered the cytotoxicity of CL	50

Reference: US12622975B2, “Peptide-conjugated prodrugs” (priority 2019, dated 2026)
